Here are results for 25 compounds from patent US20230399312A1, “SUBSTITUTED PYRIMIDINES AND METHODS OF USE” (THERAVANCE BIOPHARMA R&D IP, LLC, priority 2020, published 2023).

Each structure is given as a SMILES string. Some results are limits rather than exact numbers.

Experiment [1] addresses T1, recombinant human ALK5 (TGF-βR1) protein (Homo sapiens, UniProt P36897).
T1 construct: purchased Life Technologies PR9075A
T1 sequence (P36897 34-503): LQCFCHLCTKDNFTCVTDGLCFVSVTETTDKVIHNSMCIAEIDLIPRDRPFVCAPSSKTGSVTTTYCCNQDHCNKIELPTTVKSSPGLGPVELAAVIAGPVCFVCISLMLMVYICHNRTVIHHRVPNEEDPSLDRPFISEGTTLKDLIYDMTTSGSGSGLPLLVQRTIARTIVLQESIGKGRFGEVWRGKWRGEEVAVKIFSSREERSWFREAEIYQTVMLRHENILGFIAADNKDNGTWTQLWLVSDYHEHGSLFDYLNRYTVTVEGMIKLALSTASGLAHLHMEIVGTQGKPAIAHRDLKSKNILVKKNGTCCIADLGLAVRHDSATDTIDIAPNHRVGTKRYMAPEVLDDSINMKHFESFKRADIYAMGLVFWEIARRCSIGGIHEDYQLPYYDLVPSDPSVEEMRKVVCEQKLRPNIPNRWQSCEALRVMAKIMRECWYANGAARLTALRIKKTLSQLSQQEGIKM
Description: Biochemical ALK5 (TGF-βR1) assay to measure pKi (LANCE Ultra ULight kinase assay). Particulars: apparent pKi, converted from pIC50 by Cheng-Prusoff. A digest of the protocol: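 Enzyme preincubated with compound for 60 min at room temperature, then reacted with ATP (125 μM as 5× stock) for 60 min at 37 °C. Stopped with EDTA plus Eu-anti-phospho-Topoisomerase 2-alpha (Thr1342) antibody and read by TR-FRET at 665 nm. pIC50 from a 4-parameter fit, converted to pKi by Cheng-Prusoff.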

Experiment [2] has as its system TGF-β-stimulated SMAD3 phosphorylation in BEAS-2B cells. Description: Cellular ALK5 potency assay, inhibition of TGF-β stimulated pSMAD3 formation in BEAS-2B cells. Particulars: Homo sapiens, pSMAD3, TGF-β 10 ng/mL, read-out: BEAS2B pIC50 (converted). Format: cell-based. A digest of the protocol: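 Reported as pIC50, potency reflects dose-dependent loss of AlphaLISA pSMAD3 signal versus TGF-β-stimulated, compound-free BEAS-2B cells. Compound was applied for 1 h in BSA-containing HBSS buffer before a 30-min challenge with TGF-β at 10 ng/mL final.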

Turning to `Cc1cccc(-c2nccc(Nc3ccnc(Nc4ccc(N5CCOCC5)cn4)n3)n2)n1` [Compound 281, N4-[2-(6-methyl-2-pyridyl)pyrimidin-4-yl]-N2-(5-morpholino-2-pyridyl)pyrimidine-2,4-diamine], the Ki in experiment [1] was 0.398 to 3.16 nM. Also, in experiment [2], the IC50 is 25.1 to 158 nM.
On the same counts, the results for `Cc1cccc(-c2nccc(Nc3ccnc(Nc4cccc(NC(=O)C5CCN(C6CCN(C)CC6)CC5)c4)n3)n2)n1` [Compound 282, 1-(1-methyl-4-piperidyl)-N-[3-[[4-[[2-(6-methyl-2-pyridyl)pyrimidin-4-yl]amino]pyrimidin-2-yl]amino]phenyl]piperidine-4-carboxamide] are 0.0398 to 0.316 nM and 25.1 to 158 nM.
As for `Cc1cccc(-c2nccc(Nc3ccnc(Nc4ccc(CN5CCN[C@H](C(=O)O)C5)cc4)n3)n2)n1` [Compound 283, (2S)-4-[[4-[[4-[[2-(6-methyl-2-pyridyl)pyrimidin-4-yl]amino]pyrimidin-2-yl]amino]phenyl]methyl] piperazine-2-carboxylic acid], the Ki in experiment [1] is 0.0398 to 0.316 nM. For the same compound, in experiment [2], the IC50 is 200 to 1260 nM.
On the same counts, the results for `Cc1cccc(-c2nccc(Nc3ccnc(Nc4ccc5[nH]ncc5c4)n3)n2)n1` [Compound 284, N2-(1H-indazol-5-yl)-N4-[2-(6-methyl-2-pyridyl)pyrimidin-4-yl]pyrimidine-2,4-diamine] are 0.398 to 3.16 nM and at most 20 nM.
On the same counts, the results for `Cc1cccc(-c2nccc(Nc3ccnc(Nc4ccc(O)cc4)n3)n2)n1` [Compound 285, 4-[[4-[[2-(6-methyl-2-pyridyl)pyrimidin-4-yl]amino]pyrimidin-2-yl]amino]phenol] are 0.398 to 3.16 nM and 25.1 to 158 nM.
Take `Cc1cccc(-c2nccc(Nc3ccnc(Nc4cnn(CCCN)c4)n3)n2)n1` [Compound 286, N2-[1-(3-aminopropyl)pyrazol-4-yl]-N4-[2-(6-methyl-2-pyridyl)pyrimidin-4-yl]pyrimidine-2,4-diamine]: the Ki in experiment [1] is 0.0398 to 0.316 nM. The IC50 in experiment [2] was 200 to 1260 nM.
Consider `Cc1cccc(-c2nccc(Nc3ccnc(Nc4nc(CN5CCNCC5)cs4)n3)n2)n1` [Compound 287, N4-(2-(6-methylpyridin-2-yl)pyrimidin-4-yl)-N2-(4-(piperazin-1-ylmethyl)thiazol-2-yl)pyrimidine-2,4-diamine], for which, in experiment [1], the Ki is 0.398 to 3.16 nM. Also, the IC50 in experiment [2] is 25.1 to 158 nM.
For `Cc1cccc(-c2nccc(Nc3ccnc(Nc4cccc(NC(=O)C5CCNCC5)c4)n3)n2)n1` [Compound 288, N-[3-[[4-[[2-(6-methyl-2-pyridyl)pyrimidin-4-yl]amino]pyrimidin-2-yl]amino]phenyl]piperidine-4-carboxamide], the Ki in experiment [1] was 0.0398 to 0.316 nM. The IC50 in experiment [2] was at most 20 nM.
On the same counts, the results for `Cc1cccc(-c2nccc(Nc3ccnc(Nc4ccc(N5CCC(N)C5)cc4)n3)n2)n1` (centres unmarked) [Compound 289, N2-[4-(3-aminopyrrolidin-1-yl)phenyl]-N4-[2-(6-methyl-2-pyridyl)pyrimidin-4-yl]pyrimidine-2,4-diamine] are 0.0398 to 0.316 nM and 25.1 to 158 nM.
On the same counts, the results for `Cc1cccc(-c2nccc(Nc3ccnc(Nc4ccc(C(=O)N5CCNCC5)cc4)n3)n2)n1` [Compound 290, [4-[[4-[[2-(6-methyl-2-pyridyl)pyrimidin-4-yl]amino]pyrimidin-2-yl]amino]phenyl]-piperazin-1-yl-methanone] are 0.0398 to 0.316 nM and 25.1 to 158 nM.
On the same counts, the results for `Cc1cccc(-c2nccc(Nc3ccnc(Nc4nc(C(=O)O[C@@H]5CCN(C)C5)cs4)n3)n2)n1` [Compound 291, [(3R)-1-methylpyrrolidin-3-yl] 2-[[4-[[2-(6-methyl-2-pyridyl)pyrimidin-4-yl]amino]pyrimidin-2-yl]amino]thiazole-4-carboxylate] are 0.398 to 3.16 nM and 25.1 to 158 nM.
Consider `Cc1cccc(-c2nccc(Nc3ccnc(Nc4cccc(C(=O)N5CCN(C(C)C)CC5)c4)n3)n2)n1` [Compound 292, (4-isopropylpiperazin-1-yl)-[3-[[4-[[2-(6-methyl-2-pyridyl)pyrimidin-4-yl]amino]pyrimidin-2-yl]amino]phenyl]methanone], for which, in experiment [1], the Ki is 0.398 to 3.16 nM. Besides, the IC50 in experiment [2] is 25.1 to 158 nM.
On the same counts, the results for `CNC(=O)[C@H]1CN(Cc2ccc(Nc3nccc(Nc4ccnc(-c5cccc(C)n5)n4)n3)cc2)CCN1` [Compound 293, (2R)-N-methyl-4-[[4-[[4-[[2-(6-methyl-2-pyridyl)pyrimidin-4-yl]amino]pyrimidin-2-yl]amino]phenyl]methyl] piperazine-2-carboxamide] are 0.0398 to 0.316 nM and 25.1 to 158 nM.
Regarding `Cc1cccc(-c2nccc(Nc3ccnc(Nc4ccc(F)c(CO)c4)n3)n2)n1` [Compound 294, [2-fluoro-5-[[4-[[2-(6-methyl-2-pyridyl)pyrimidin-4-yl]amino]pyrimidin-2-yl]amino]phenyl]methanol], the Ki in experiment [1] is 0.0398 to 0.316 nM. In experiment [2], the IC50 is at most 20 nM.
Regarding `Cc1cccc(-c2nccc(Nc3ccnc(Nc4ccc(Cl)c(CO)c4)n3)n2)n1` [Compound 295, [2-chloro-5-[[4-[[2-(6-methyl-2-pyridyl)pyrimidin-4-yl]amino]pyrimidin-2-yl]amino]phenyl]methanol], the Ki in experiment [1] was 0.0398 to 0.316 nM. In addition, the IC50 in experiment [2] is 25.1 to 158 nM.
Take `Cc1cccc(-c2nccc(Nc3ccnc(Nc4ccc(NS(=O)(=O)C5CNC5)cc4)n3)n2)n1` [Compound 296, N-[4-[[4-[[2-(6-methyl-2-pyridyl)pyrimidin-4-yl]amino]pyrimidin-2-yl]amino]phenyl]azetidine-3-sulfonamide]: the Ki in experiment [1] was 0.398 to 3.16 nM. Besides, the IC50 in experiment [2] is 200 to 1260 nM.
`Cc1cccc(-c2nccc(Nc3ccnc(Nc4ccc(CN5CCC(C(=O)O[C@H]6CCN(C)C6)CC5)cc4)n3)n2)n1` [Compound 297, [(3S)-1-methylpyrrolidin-3-yl] 1-[[4-[[4-[[2-(6-methyl-2-pyridyl)pyrimidin-4-yl]amino]pyrimidin-2-yl]amino]phenyl]methyl] piperidine-4-carboxylate]: in experiment [1], the Ki was 0.0398 to 0.316 nM. In addition, the IC50 in experiment [2] is 200 to 1260 nM.
On to `Cc1cccc(-c2nccc(Nc3ccnc(Nc4cccc(NC(=O)N5CCNCC5)c4)n3)n2)n1` [Compound 298, N-[3-[[4-[[2-(6-methyl-2-pyridyl)pyrimidin-4-yl]amino]pyrimidin-2-yl]amino]phenyl]piperazine-1-carboxamide], for which the Ki in experiment [1] is 0.0398 to 0.316 nM. In addition, the IC50 in experiment [2] is 25.1 to 158 nM.
On the same counts, the results for `Cc1cccc(-c2nccc(Nc3ccnc(Nc4cccc(NC(=O)C5(O)CNC5)c4)n3)n2)n1` [Compound 299, 3-hydroxy-N-[3-[[4-[[2-(6-methyl-2-pyridyl)pyrimidin-4-yl]amino]pyrimidin-2-yl]amino]phenyl]azetidine-3-carboxamide] are 0.0398 to 0.316 nM and 25.1 to 158 nM.
On to `Cc1cccc(-c2nccc(Nc3ccnc(Nc4ccc(N5CCOCC5)c(F)c4)n3)n2)n1` [Compound 300, N2-(3-fluoro-4-morpholino-phenyl)-N4-[2-(6-methyl-2-pyridyl)pyrimidin-4-yl]pyrimidine-2,4-diamine], for which the Ki in experiment [1] is 0.0398 to 0.316 nM. In experiment [2], the IC50 is 25.1 to 158 nM.
On the same counts, the results for `Cc1cccc(-c2nccc(Nc3ccnc(Nc4ccc(CN5CCN(CCO)CC5)cc4)n3)n2)n1` [Compound 301, 2-[4-[[4-[[4-[[2-(6-methyl-2-pyridyl)pyrimidin-4-yl]amino]pyrimidin-2-yl]amino]phenyl]methyl]piperazin-1-yl]ethanol] are 0.0398 to 0.316 nM and 25.1 to 158 nM.
With `Cc1cccc(-c2nccc(Nc3ccnc(Nc4ccc(N5CCC(CN)CC5)cc4)n3)n2)n1` [Compound 302, N2-[4-[4-(aminomethyl)-1-piperidyl]phenyl]-N4-[2-(6-methyl-2-pyridyl)pyrimidin-4-yl]pyrimidine-2,4-diamine], the Ki in experiment [1] was 0.0398 to 0.316 nM. For the same compound, in experiment [2], the IC50 was 25.1 to 158 nM.
On the same counts, the results for `Cc1cccc(-c2nccc(Nc3ccnc(Nc4ccc(NS(=O)(=O)N5CCN(C)CC5)cc4)n3)n2)n1` [Compound 303, 4-methyl-N-[4-[[4-[[2-(6-methyl-2-pyridyl)pyrimidin-4-yl]amino]pyrimidin-2-yl]amino]phenyl]piperazine-1-sulfonamide] are 0.398 to 3.16 nM and 25.1 to 158 nM.
`CCOC(=O)Cc1ccc(Nc2nccc(Nc3ccnc(-c4cccc(C)n4)n3)n2)cc1` [Compound 304, ethyl 2-[4-[[4-[[2-(6-methyl-2-pyridyl)pyrimidin-4-yl]amino]pyrimidin-2-yl]amino]phenyl]acetate]: the Ki in experiment [1] is 0.398 to 3.16 nM. The IC50 in experiment [2] is 25.1 to 158 nM.
On the same counts, the results for `Cc1cccc(-c2nccc(Nc3ccnc(Nc4ccc(CN5CCN(C)CC5)cc4)n3)n2)n1` [Compound 305, N2-[4-[(4-methylpiperazin-1-yl)methyl]phenyl]-N4-[2-(6-methyl-2-pyridyl)pyrimidin-4-yl]pyrimidine-2,4-diamine] are 0.0398 to 0.316 nM and 25.1 to 158 nM.
